Laboratory results taken from ChEMBL document CHEMBL1156001, “Synthesis and in vitro DMPK profiling of a 1,2-dioxolane-based library with activity against Plasmodium falciparum” (Bioorg Med Chem Lett, 2009).

Experiments:
[1] = Intrinsic clearance in rat liver microsomes after 10 to 45 mins by LCMS/MS analysis; format: ADME, Microsome
[2] = Octanol-PBS partition coefficient, log D at […] at pH 7.4; format: physicochemical
[3] = Membrane permeability at […] at pH 6.5 to 7.4 after 4 hrs by PAMPA; format: ADME; details: read-out: permeability
[4] = Intrinsic clearance in human liver microsomes after 10 to 45 mins by LCMS/MS analysis; format: ADME, Microsome

Compound	microsomal CLint [1]	logD [2]	Papp at 4 h [3]	microsomal CLint [4]
CC1(CC(=O)NCCNc2ccnc3cc(Cl)ccc23)CC2(CCCCC2)OO1 (stereo not given)	> 119 µL/min/mg	3.4	66 ×10⁻⁶ cm/s	> 72 µL/min/mg
CC1(CC(=O)NCc2ccccc2Sc2ccccc2CO)CC2(CCCCC2)OO1 (stereo not given)		4.3	77 ×10⁻⁶ cm/s	
COc1cccc(CNC(=O)CC2(C)CC3(CCCCC3)OO2)c1 (stereo not given)		3.1	65 ×10⁻⁶ cm/s	
CC1(CC(=O)NCc2ccc(Br)cc2F)CC2(CCCCC2)OO1 (stereo not given)		4.1		
CC1(CC(=O)NCc2ccc(Oc3cc(C(F)(F)F)cc(C(F)(F)F)c3)cc2)CC2(CCCCC2)OO1 (stereo not given)		3.2		
CC1(CC(=O)NCc2ccc(OC(F)(F)F)cc2)CC2(CCCCC2)OO1 (stereo not given)		3.2		
CC1(CC(=O)NCc2cccc(C(F)(F)F)c2)CC2(CCCCC2)OO1 (stereo not given)		4		
CC(C)(C)OC(=O)Nc1cccc(CCNC(=O)CC2(C)CC3(CCCCC3)OO2)c1 (stereo not given)		3		
CC1(CC(=O)NCc2cccc(I)c2)CC2(CCCCC2)OO1 (stereo not given)		3.5		
CC1(CC(=O)NCc2ccccc2N)CC2(CCCCC2)OO1 (stereo not given)		2.5	37 ×10⁻⁶ cm/s	
CC1(CC(=O)NCc2ccc3c(c2)OCC=CO3)CC2(CCCCC2)OO1 (stereo not given)		3.1	55 ×10⁻⁶ cm/s	
CC1(CC(=O)NCc2ccccc2OC(F)(F)F)CC2(CCCCC2)OO1 (stereo not given)		3.3		
CC1(CC(=O)NCc2ccc(Oc3ccc(F)cc3)cc2)CC2(CCCCC2)OO1 (stereo not given)		> 3.5		
CC1(CC(=O)NCc2ccccn2)CC2(CCCCC2)OO1 (stereo not given)		2.3	33 ×10⁻⁶ cm/s	
CC1(CC(=O)NCc2ccc([N+](=O)[O-])cc2)CC2(CCCCC2)OO1 (stereo not given)		3.4	49 ×10⁻⁶ cm/s	
CC1(CC(=O)NCc2ccc(S(N)(=O)=O)cc2)CC2(CCCCC2)OO1 (stereo not given)		1.4		
CC1(CC(=O)NCc2cccc(Cl)c2Cl)CC2(CCCCC2)OO1 (stereo not given)		3.4		
CC1(CC(=O)NCc2cccc(-c3ccccc3)c2)CC2(CCCCC2)OO1 (stereo not given)		3.8		
CC1(CC(=O)NCc2ccc(-c3ccc(F)cc3)cc2)CC2(CCCCC2)OO1 (stereo not given)		4.8		
CC1(CC(=O)NCc2cccc(Oc3ccc(Cl)cc3)c2)CC2(CCCCC2)OO1 (stereo not given)		3.2		
CC1(CC(=O)NCc2cccc(Br)c2)CC2(CCCCC2)OO1 (stereo not given)		3.3		

Compound	microsomal CLint [1]	logD [2]	Papp at 4 h [3]	microsomal CLint [4]
CC1(CC(=O)NCc2ccc(C(C)(C)C)cc2)CC2(CCCCC2)OO1 (stereo not given)		3.5		
CC1(CC(=O)NCc2ccc(Cl)cc2Cl)CC2(CCCCC2)OO1 (stereo not given)		> 3.5		
CC1(CC(=O)NCc2ccc(-c3cc(Cl)cc(Cl)c3)cc2)CC2(CCCCC2)OO1 (stereo not given)		> 3.5		
CC1(CC(=O)NCc2ccc(C(=O)O)cc2)CC2(CCCCC2)OO1 (stereo not given)		0.3		
CC1(CC(=O)NCc2cccc(Cl)c2)CC2(CCCCC2)OO1 (stereo not given)		3.7		
COC(=O)c1ccc(CNC(=O)CC2(C)CC3(CCCCC3)OO2)cc1 (stereo not given)		3.4	57 ×10⁻⁶ cm/s	
CC1(CC(=O)NCc2ccccc2N2CCCCC2)CC2(CCCCC2)OO1 (stereo not given)		> 3.5	62 ×10⁻⁶ cm/s	
CC1(CC(=O)NCc2ccc(N3CCOCC3)cc2)CC2(CCCCC2)OO1 (stereo not given)		2.7		
CN(C)c1ccc(CNC(=O)CC2(C)CC3(CCCCC3)OO2)cc1 (stereo not given)		3.1	90 ×10⁻⁶ cm/s	
CSc1ccc(CNC(=O)CC2(C)CC3(CCCCC3)OO2)cc1 (stereo not given)		3.7	97 ×10⁻⁶ cm/s	
CCOc1ccccc1CNC(=O)CC1(C)CC2(CCCCC2)OO1 (stereo not given)		3.1	74 ×10⁻⁶ cm/s	
CC1(CC(=O)NCc2ccncc2)CC2(CCCCC2)OO1 (stereo not given)		2.1	18 ×10⁻⁶ cm/s	
COc1cc(CNC(=O)CC2(C)CC3(CCCCC3)OO2)cc(OC)c1 (stereo not given)		3.3	55 ×10⁻⁶ cm/s	
COc1cc(CNC(=O)CC2(C)CC3(CCCCC3)OO2)cc(OC)c1OC (stereo not given)		2.3	54 ×10⁻⁶ cm/s	
CC1(CC(=O)NCc2ccc(-n3cccc3)cc2)CC2(CCCCC2)OO1 (stereo not given)		4.3	70 ×10⁻⁶ cm/s	
CC1(CC(=O)NCc2ccc(-c3cccs3)cc2)CC2(CCCCC2)OO1 (stereo not given)		3.7		
CC1(CC(=O)NCc2ccc(OC(F)F)cc2)CC2(CCCCC2)OO1 (stereo not given)		3.1		
Cc1cc(Cl)ccc1CNC(=O)CC1(C)CC2(CCCCC2)OO1 (stereo not given)		4.2		
CC1(CC(=O)NCc2ccc3c(c2)OCC3)CC2(CCCCC2)OO1 (stereo not given)		2.8		
CC1(CC(=O)NCc2ccc3c(c2)OCCO3)CC2(CCCCC2)OO1 (stereo not given)		2.7	56 ×10⁻⁶ cm/s	
